Data on 14 molecules can be found in patent US20240208992A1, “MACROCYCLES AS CFTR MODULATORS” (Idorsia Pharmaceuticals Ltd, priority 2021, published 2024).

For this test, the target named is human F508del-CFTR (Homo sapiens, UniProt P13569, DEL508-508). Kind of test: F508del-CFTR cell surface expression (corrector activity), DiscoveRx ß-galactosidase complementation chemiluminescence assay in recombinant U2OS cell line.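 On all read-outs here: U2OS cells co-expressing ProLink-tagged F508del-CFTR and a membrane-anchored enzyme acceptor, where more surface CFTR restores β-galactosidase activity measured by chemiluminescence.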 The conditions noted are these: for EC50: EC50, F508del-CFTR cell surface expression, U2OS cells, 16h compound incubation, geomean values; for Emax: U2OS, in relation to Emax of corrector lumacaftor (=100%), arithmetic mean values.
human F508del-CFTR, sequence (P13569 with tags, fused parts or gaps DEL508-508): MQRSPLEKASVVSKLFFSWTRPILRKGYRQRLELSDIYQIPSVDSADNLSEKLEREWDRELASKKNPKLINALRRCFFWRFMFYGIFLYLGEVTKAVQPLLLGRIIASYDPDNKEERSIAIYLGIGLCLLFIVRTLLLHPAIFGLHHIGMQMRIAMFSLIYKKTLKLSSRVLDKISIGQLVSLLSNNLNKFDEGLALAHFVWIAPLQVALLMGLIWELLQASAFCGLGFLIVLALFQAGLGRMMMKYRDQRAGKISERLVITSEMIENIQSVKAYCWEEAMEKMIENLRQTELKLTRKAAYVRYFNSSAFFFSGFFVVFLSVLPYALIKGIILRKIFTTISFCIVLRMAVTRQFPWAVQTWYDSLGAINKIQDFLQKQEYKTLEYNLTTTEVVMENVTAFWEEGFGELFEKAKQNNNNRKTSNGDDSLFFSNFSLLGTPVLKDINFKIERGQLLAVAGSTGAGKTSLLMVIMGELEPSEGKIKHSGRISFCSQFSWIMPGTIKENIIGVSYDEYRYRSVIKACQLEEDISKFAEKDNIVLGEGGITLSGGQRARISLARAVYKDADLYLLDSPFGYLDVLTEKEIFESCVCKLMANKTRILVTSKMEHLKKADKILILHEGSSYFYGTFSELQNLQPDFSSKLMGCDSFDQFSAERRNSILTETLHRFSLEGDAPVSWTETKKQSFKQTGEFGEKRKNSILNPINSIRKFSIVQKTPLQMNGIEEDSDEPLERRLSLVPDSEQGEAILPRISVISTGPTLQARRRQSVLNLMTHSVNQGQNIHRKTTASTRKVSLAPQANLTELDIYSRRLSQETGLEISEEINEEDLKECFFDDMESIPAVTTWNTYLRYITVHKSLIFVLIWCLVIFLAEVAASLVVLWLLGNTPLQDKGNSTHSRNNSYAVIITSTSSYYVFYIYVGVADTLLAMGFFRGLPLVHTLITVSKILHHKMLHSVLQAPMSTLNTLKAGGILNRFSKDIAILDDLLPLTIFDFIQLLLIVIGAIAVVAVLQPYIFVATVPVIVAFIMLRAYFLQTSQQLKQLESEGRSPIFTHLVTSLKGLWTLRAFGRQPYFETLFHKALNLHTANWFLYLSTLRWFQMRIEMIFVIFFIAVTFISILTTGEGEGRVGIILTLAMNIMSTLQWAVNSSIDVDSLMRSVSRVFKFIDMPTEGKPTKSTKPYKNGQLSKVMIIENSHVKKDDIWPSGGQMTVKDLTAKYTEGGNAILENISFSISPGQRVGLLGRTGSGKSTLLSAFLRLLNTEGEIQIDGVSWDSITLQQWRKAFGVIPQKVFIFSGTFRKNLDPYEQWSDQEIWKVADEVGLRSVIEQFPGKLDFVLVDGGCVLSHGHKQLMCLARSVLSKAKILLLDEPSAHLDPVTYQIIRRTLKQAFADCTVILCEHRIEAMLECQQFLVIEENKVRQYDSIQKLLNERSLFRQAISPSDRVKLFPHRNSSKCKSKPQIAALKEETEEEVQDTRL

Turning to `Cc1nc2ccc3c(c2o1)C(=O)N[C@H](C(=O)NCCc1cccc(OC(F)F)c1)CC(=O)N(C)[C@@H](CC(C)C)C(=O)N1CCN(C2CC2)C[C@@H]1C(=O)N[C@H](Cc1ccccc1)CO3` [Example 419, (8S,12S,18aR,21R)-21-benzyl-17-cyclopropyl-N-(3-(difluoromethoxy)phenethyl)-12-isobutyl-4,11-dimethyl-6,10,13,19-tetraoxo-6,7,8,9,10,11,12,13,16,17,18,18a,19,20,21,22-hexadecahydro-15H-oxazolo[4′,5′:5,6]benzo[1,2-p]pyrazino[2,1-f][1]oxa[4,7,10,14]tetraazacycloheptadecine-8-carboxamide], the EC50 came out at 358 nM and the Emax is 243%.

In the case of `Cc1nc2ccc3c(c2o1)C(=O)N[C@H](C(=O)NCCc1nc2c(s1)CCC2)CC(=O)N(C)[C@@H](CC(C)C)C(=O)N1CCN(C2CC2)C[C@@H]1C(=O)N[C@H](Cc1ccccc1)CO3` [Example 420, (8S,12S,18aR,21R)-21-benzyl-17-cyclopropyl-N-(2-(5,6-dihydro-4H-cyclopenta[d]thiazol-2-yl)ethyl)-12-isobutyl-4,11-dimethyl-6,10,13,19-tetraoxo-6,7,8,9,10,11,12,13,16,17,18,18a,19,20,21,22-hexadecahydro-15H-oxazolo[4′,5′:5,6]benzo[1,2-p]pyrazino[2,1-f][1]oxa[4,7,10,14]tetraazacycloheptadecine-8-carboxamide], the EC50 was found to be 437 nM and the Emax was 231%.

Consider `Cc1nc2ccc3c(c2o1)C(=O)N[C@H](C(=O)NCCc1ccc2c(c1)OCCO2)CC(=O)N(C)[C@@H](CC(C)C)C(=O)N1CCN(C2CC2)C[C@@H]1C(=O)N[C@H](Cc1ccccc1)CO3` [Example 421, (8S,12S,18aR,21R)-21-benzyl-17-cyclopropyl-N-(2-(2,3-dihydrobenzo[b][1,4]dioxin-6-yl)ethyl)-12-isobutyl-4,11-dimethyl-6,10,13,19-tetraoxo-6,7,8,9,10,11,12,13,16,17,18,18a,19,20,21,22-hexadecahydro-15H-oxazolo[4′,5′:5,6]benzo[1,2-p]pyrazino[2,1-f][1]oxa[4,7,10,14]tetraazacycloheptadecine-8-carboxamide], for which the EC50 stood at 391 nM and the Emax stood at 320%.

On to `Cc1nc2ccc3c(c2o1)C(=O)N[C@H](C(=O)NCCc1cccc(C(C)(F)F)c1)CC(=O)N(C)[C@@H](CC(C)C)C(=O)N(CCC1CCCCC1)CC(=O)N[C@H](Cc1ccccc1)CO3` [Example 422, (8R,14S,18S)-8-benzyl-12-(2-cyclohexylethyl)-N-(3-(1,1-difluoroethyl)phenethyl)-14-isobutyl-2,15-dimethyl-10,13,16,20-tetraoxo-7,8,9,10,11,12,13,14,15,16,17,18,19,20-tetradecahydrooxazolo[4′,5′:5,6]benzo[1,2-p][1]oxa[4,7,10,14]tetraazacycloheptadecine-18-carboxamide], for which the EC50 was determined as 192 nM and the Emax amounted to 193%.

`COc1cccc(CCNC(=O)[C@@H]2CC(=O)N(C)[C@@H](CC(C)C)C(=O)N3CCCC[C@@H]3C(=O)N[C@H](Cc3ccccc3)COc3ccc4c(cnn4C)c3C(=O)N2)c1` [Example 423, (8S,12S,18aR,21R)-21-benzyl-12-isobutyl-N-(3-methoxyphenethyl)-3,11-dimethyl-6,10,13,19-tetraoxo-6,7,8,9,10,11,12,13,16,17,18,18a,19,20,21,22-hexadecahydro-3H,15H-pyrido[2′,1′:6,7][1]oxa[4,7,10,14]tetraazacycloheptadecino[16,17-e]indazole-8-carboxamide]: the 50% effective concentration (EC50) came out at 278 nM and the Emax was 239%.

As to `COc1cccc(CCNC(=O)[C@@H]2CC(=O)N(C)[C@@H](CC(C)C)C(=O)N3CCOC[C@@H]3C(=O)N[C@H](Cc3ccccc3)COc3ccc4c(cnn4C)c3C(=O)N2)c1` [Example 424, (8S,12S,18aR,21R)-21-benzyl-12-isobutyl-N-(3-methoxyphenethyl)-3,11-dimethyl-6,10,13,19-tetraoxo-6,7,8,9,10,11,12,13,15,16,18,18a,19,20,21,22-hexadecahydro-3H-[1,4]oxazino[3′,4′:6,7][1]oxa[4,7,10,14]tetraazacycloheptadecino[16,17-e]indazole-8-carboxamide], the 50% effective concentration (EC50) worked out at 831 nM and the Emax stood at 235%.

Regarding `COc1cccc(CCNC(=O)[C@@H]2CC(=O)N(C)[C@@H](CC(C)C)C(=O)N3CCN(CC4CC4)C[C@@H]3C(=O)N[C@H](Cc3ccccc3)COc3ccc4nc(C)oc4c3C(=O)N2)c1` [Example 425, (8S,12S,18aR,21R)-21-benzyl-17-(cyclopropylmethyl)-12-isobutyl-N-(3-methoxyphenethyl)-4,11-dimethyl-6,10,13,19-tetraoxo-6,7,8,9,10,11,12,13,16,17,18,18a,19,20,21,22-hexadecahydro-15H-oxazolo[4′,5′:5,6]benzo[1,2-p]pyrazino[2,1-f][1]oxa[4,7,10,14]tetraazacycloheptadecine-8-carboxamide], the 50% effective concentration (EC50) stood at 348 nM and the maximum response (Emax) is 364%.

In the case of `Cc1nc2ccc3c(c2o1)C(=O)N[C@H](C(=O)NCCc1cccc(OC(F)F)c1)CC(=O)N(C)[C@@H](CC(C)C)C(=O)N1CCN(CC2CC2)C[C@@H]1C(=O)N[C@H](Cc1ccccc1)CO3` [Example 426, (8S,12S,18aR,21R)-21-benzyl-17-(cyclopropylmethyl)-N-(3-(difluoromethoxy)phenethyl)-12-isobutyl-4,11-dimethyl-6,10,13,19-tetraoxo-6,7,8,9,10,11,12,13,16,17,18,18a,19,20,21,22-hexadecahydro-15H-oxazolo[4′,5′:5,6]benzo[1,2-p]pyrazino[2,1-f][1]oxa[4,7,10,14]tetraazacycloheptadecine-8-carboxamide], the half-maximal effective concentration (EC50) was determined as 269 nM and the Emax stood at 217%.

As to `CCOc1cccc(CCNC(=O)[C@@H]2CC(=O)N(C)[C@@H](CC(C)C)C(=O)N3CCN(CC4CC4)C[C@@H]3C(=O)N[C@H](Cc3ccccc3)COc3ccc4nc(C)oc4c3C(=O)N2)c1` [Example 427, (8S,12S,18aR,21R)-21-benzyl-17-(cyclopropylmethyl)-N-(3-ethoxyphenethyl)-12-isobutyl-4,11-dimethyl-6,10,13,19-tetraoxo-6,7,8,9,10,11,12,13,16,17,18,18a,19,20,21,22-hexadecahydro-15H-oxazolo[4′,5′:5,6]benzo[1,2-p]pyrazino[2,1-f][1]oxa[4,7,10,14]tetraazacycloheptadecine-8-carboxamide], the EC50 amounted to 248 nM and the Emax turned out to be 274%.

Take `Cc1nc2ccc3c(c2o1)C(=O)N[C@H](C(=O)NCCc1ccc(-n2nccn2)cc1)CC(=O)N(C)[C@@H](CC(C)C)C(=O)N1CCN(CC2CC2)C[C@@H]1C(=O)N[C@H](Cc1ccccc1)CO3` [Example 428, (8S,12S,18aR,21R)-N-(4-(2H-1,2,3-triazol-2-yl)phenethyl)-21-benzyl-17-(cyclopropylmethyl)-12-isobutyl-4,11-dimethyl-6,10,13,19-tetraoxo-6,7,8,9,10,11,12,13,16,17,18,18a,19,20,21,22-hexadecahydro-15H-oxazolo[4′,5′:5,6]benzo[1,2-p]pyrazino[2,1-f][1]oxa[4,7,10,14]tetraazacycloheptadecine-8-carboxamide]: the concentration for a half-maximal effect (EC50) came out at 614 nM and the maximal effect (Emax) was found to be 218%.

As for `Cc1cc(CCNC(=O)[C@@H]2CC(=O)N(C)[C@@H](CC(C)C)C(=O)N3CCCC[C@@H]3C(=O)N[C@H](Cc3ccccc3)COc3ccc4c(cnn4C)c3C(=O)N2)on1` [Example 429, (8S,12S,18aR,21R)-21-benzyl-12-isobutyl-3,11-dimethyl-N-(2-(3-methylisoxazol-5-yl)ethyl)-6,10,13,19-tetraoxo-6,7,8,9,10,11,12,13,16,17,18,18a,19,20,21,22-hexadecahydro-3H,15H-pyrido[2′,11:6,7][1]oxa[4,7,10,14]tetraazacycloheptadecino[16,17-e]indazole-8-carboxamide], the EC50 was 606 nM and the Emax was 224%.

In the case of `CC(C)C[C@H]1C(=O)N(C)CC(=O)N[C@H](Cc2ccccc2)COc2nc3ccccn3c2C(=O)N[C@H](C(=O)NCCc2ccc3c(c2)OCO3)CC(=O)N1C` [Example 430, (3R,9S,13S)-N-(2-(benzo[d][1,3]dioxol-5-yl)ethyl)-3-benzyl-9-isobutyl-7,10-dimethyl-5,8,11,15-tetraoxo-2,3,4,5,6,7,8,9,10,11,12,13,14,15-tetradecahydropyrido[2′,11:2,3]imidazo[4,5-p][1]oxa[4,7,10,14]tetraazacycloheptadecine-13-carboxamide], the EC50 came to 964 nM and the maximal effect (Emax) was determined as 194%.

With `COCCCN1C(=O)[C@H](CC(C)C)N(C)C(=O)C[C@@H](C(=O)NCCc2cccc(OC)c2)NC(=O)c2c(ccc3ccccc23)OC[C@@H](Cc2ccccc2)NC(=O)[C@H]1C` [Example 431, (3S,7S,10R,13R)-13-benzyl-7-isobutyl-N-(3-methoxyphenethyl)-9-(3-methoxypropyl)-6,10-dimethyl-1,5,8,11-tetraoxo-1,2,3,4,5,6,7,8,9,10,11,12,13,14-tetradecahydronaphtho[1,2-p][1]oxa[4,7,10,14]tetraazacycloheptadecine-3-carboxamide], the EC50 stood at 208 nM and the Emax came out at 281%.

Consider `Cc1cc(CCNC(=O)[C@@H]2CC(=O)N(C)[C@@H](CC3CCCC3)C(=O)N(C)C3(CC3)C(=O)N[C@H](Cc3ccccc3)COc3cnc4ccccc4c3C(=O)N2)on1` [Example 432, (3′S,7′S,13′R)-13′-benzyl-7′-(cyclopentylmethyl)-6′,9′-dimethyl-N-(2-(3-methylisoxazol-5-yl)ethyl)-1′,5′,8′,11′-tetraoxo-2′,3′,4′,5′,6′,7′,8′,9′,11′,12′,13′,14′-dodecahydro-1′H-spiro[cyclopropane-1,10′-[1]oxa[4,7,10,14]tetraazacycloheptadecino[17,16-c]quinoline]-3′-carboxamide], for which the EC50 amounted to 474 nM and the Emax came out at 413%.
